# Results: ChEMBL document CHEMBL1201862, “PubChem BioAssay data set” (2004)
#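 Cells were grown in 96-well plates and exposed to each compound for 48 hours at five concentrations; endpoints were interpolated linearly between bracketing concentrations, or set to the highest concentration if not reached. Here, GI50 denotes the concentration required for 50% inhibition of growth.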 Activity calls are given as the source filed them. No stated cut-off is given here; in the data, active = GI50 up to about 1.1 µM and inactive = higher.
# How the values were obtained:
# Test in all cases: NCI anticancer screen, dose series, 48 h
# SK-MEL-5 = tested on: SK-MEL-5
# SN12C = tested on: SN12C
# NCI-H460 = tested on: NCI-H460
# PC-3 = tested on: PC-3
# UO-31 = tested on: UO-31
# MOLT-4 = tested on: MOLT-4
# NCI-H226 = tested on: NCI-H226
# SW-620 = tested on: SW-620
# A549 = tested on: A549
# OVCAR-4 = tested on: OVCAR-4
# HCC 2998 = tested on: HCC 2998
# SR = tested on: SR
# SNB-75 = tested on: SNB-75
# HCT-15 = tested on: HCT-15
# CAKI-1 = tested on: CAKI-1
# SF-539 = tested on: SF-539
# SK-OV-3 = tested on: SK-OV-3
# DU-145 = tested on: DU-145
# OVCAR-3 = tested on: OVCAR-3
# Hs-578T = tested on: Hs-578T
# SF-268 = tested on: SF-268
# SK-MEL-2 = tested on: SK-MEL-2
# NCI/ADR-RES = tested on: NCI/ADR-RES
# EKVX = tested on: EKVX
# RPMI-8226 = tested on: RPMI-8226
# HCT-116 = tested on: HCT-116
# CCRF-CEM = tested on: CCRF-CEM
# RXF 393 = tested on: RXF 393
# HL-60 = tested on: HL-60
# MDA-MB-231 = tested on: MDA-MB-231
# SK-MEL-28 = tested on: SK-MEL-28
# LOX IMVI = tested on: LOX IMVI
# NCI-H522 = tested on: NCI-H522
# HT-29 = tested on: HT-29
# SF-295 = tested on: SF-295
# HOP-62 = tested on: HOP-62
# T47D = tested on: T47D
# TK-10 = tested on: TK-10
# M14 = tested on: M14
# MDA-N = tested on: MDA-N
# OVCAR-8 = tested on: OVCAR-8
# COLO 205 = tested on: COLO 205
# SNB-19 = tested on: SNB-19
# MDA-MB-435 = tested on: MDA-MB-435
# UACC-62 = tested on: UACC-62
# ACHN = tested on: ACHN
# IGROV-1 = tested on: IGROV-1
# MCF7 = tested on: MCF7
# K562 = tested on: K562
# A498 = tested on: A498
# KM12 = tested on: KM12
# Malme-3M = tested on: Malme-3M
# NCI-H23 = tested on: NCI-H23
# OVCAR-5 = tested on: OVCAR-5
# U-251 = tested on: U-251
# HOP-92 = tested on: HOP-92
# 786-0 = tested on: 786-0
# UACC-257 = tested on: UACC-257
smiles,measurement,setting,value
N#Cc1c(N)nc(Nc2cccc3ccccc23)c(C#N)c1C#N,GI50,SK-MEL-5,4.43 µM (inactive)
same,GI50,SN12C,3.42 µM (inactive)
same,GI50,NCI-H460,2.97 µM (inactive)
same,GI50,PC-3,4.27 µM (inactive)
same,GI50,UO-31,3.82 µM (inactive)
same,GI50,MOLT-4,3.03 µM (inactive)
same,GI50,NCI-H226,> 10 µM (inactive)
same,GI50,SW-620,3.48 µM (inactive)
same,GI50,A549,5.71 µM (inactive)
same,GI50,OVCAR-4,> 10 µM (inactive)
same,GI50,HCC 2998,8.43 µM (inactive)
same,GI50,SR,3 µM (inactive)
same,GI50,SNB-75,3.52 µM (inactive)
same,GI50,HCT-15,4.17 µM
same,GI50,CAKI-1,6.25 µM (inactive)
same,GI50,SF-539,2.78 µM (inactive)
same,GI50,SK-OV-3,3.94 µM (inactive)
same,GI50,DU-145,> 10 µM (inactive)
same,GI50,OVCAR-3,2.3 µM (inactive)
same,GI50,Hs-578T,2.43 µM (inactive)
same,GI50,SF-268,3.68 µM (inactive)
same,GI50,SK-MEL-2,> 10 µM (inactive)
same,GI50,NCI/ADR-RES,2.71 µM (inactive)
same,GI50,EKVX,> 10 µM (inactive)
same,GI50,RPMI-8226,2.61 µM (inactive)
same,GI50,HCT-116,2.54 µM (inactive)
same,GI50,CCRF-CEM,2.32 µM (inactive)
same,GI50,RXF 393,> 10 µM (inactive)
same,GI50,HL-60,1.88 µM (inactive)
same,GI50,MDA-MB-231,3.73 µM (inactive)
same,GI50,SK-MEL-28,3.75 µM (inactive)
same,GI50,LOX IMVI,2.53 µM (inactive)
same,GI50,NCI-H522,2.9 µM (inactive)
same,GI50,HT-29,6.11 µM (inactive)
same,GI50,SF-295,3.4 µM (inactive)
same,GI50,HOP-62,4.89 µM (inactive)
same,GI50,T47D,8.09 µM (inactive)
same,GI50,TK-10,> 10 µM (inactive)
same,GI50,M14,6.61 µM (inactive)
same,GI50,MDA-N,1.84 µM (inactive)
same,GI50,OVCAR-8,5.25 µM (inactive)
same,GI50,COLO 205,> 10 µM (inactive)
same,GI50,SNB-19,> 10 µM (inactive)
same,GI50,MDA-MB-435,3.31 µM (inactive)
same,GI50,UACC-62,4.18 µM (inactive)
same,GI50,ACHN,4.78 µM (inactive)
same,GI50,IGROV-1,> 10 µM (inactive)
same,GI50,MCF7,2.79 µM (inactive)
same,GI50,K562,2.58 µM (inactive)
same,GI50,A498,3.5 µM (inactive)
same,GI50,KM12,7.53 µM (inactive)
same,GI50,Malme-3M,> 10 µM (inactive)
same,GI50,NCI-H23,3.61 µM (inactive)
same,GI50,OVCAR-5,> 10 µM (inactive)
same,GI50,U-251,4.71 µM (inactive)
COC(=O)C1ON2C(C1C(=O)OC)C(C)(C)N(O)C2(C)C (stereo not drawn),GI50,SK-MEL-5,> 10 µM (inactive)
same,GI50,SN12C,> 10 µM (inactive)
same,GI50,PC-3,> 10 µM (inactive)
same,GI50,NCI-H226,> 10 µM (inactive)
same,GI50,SW-620,> 10 µM (inactive)
same,GI50,A549,> 10 µM (inactive)
same,GI50,OVCAR-4,> 10 µM (inactive)
same,GI50,HOP-92,> 10 µM (inactive)
same,GI50,SNB-75,> 10 µM (inactive)
same,GI50,HCT-15,> 10 µM
same,GI50,CAKI-1,> 10 µM (inactive)
same,GI50,SF-539,> 10 µM (inactive)
same,GI50,DU-145,> 10 µM (inactive)
same,GI50,OVCAR-3,> 10 µM (inactive)
same,GI50,SF-268,> 10 µM (inactive)
same,GI50,NCI/ADR-RES,> 10 µM (inactive)
same,GI50,EKVX,> 10 µM (inactive)
same,GI50,HCT-116,> 10 µM (inactive)
same,GI50,RXF 393,> 10 µM (inactive)
same,GI50,MDA-MB-231,> 10 µM (inactive)
same,GI50,SK-MEL-28,> 10 µM (inactive)
same,GI50,HT-29,> 10 µM (inactive)
same,GI50,SF-295,> 10 µM (inactive)
same,GI50,TK-10,> 10 µM (inactive)
same,GI50,M14,> 10 µM (inactive)
same,GI50,MDA-N,> 10 µM (inactive)
same,GI50,OVCAR-8,> 10 µM (inactive)
same,GI50,COLO 205,> 10 µM (inactive)
same,GI50,SNB-19,> 10 µM (inactive)
same,GI50,MDA-MB-435,> 10 µM (inactive)
same,GI50,ACHN,> 10 µM (inactive)
same,GI50,IGROV-1,> 10 µM (inactive)
same,GI50,KM12,> 10 µM (inactive)
same,GI50,NCI-H23,> 10 µM (inactive)
same,GI50,OVCAR-5,> 10 µM (inactive)
same,GI50,U-251,> 10 µM (inactive)
O=C(/C(=C\C(=O)c1cccs1)c1ccsc1)c1ccc(Br)cc1,GI50,SK-MEL-5,> 100 µM (inactive)
same,GI50,SN12C,> 100 µM (inactive)
same,GI50,NCI-H460,> 100 µM (inactive)
same,GI50,PC-3,> 100 µM (inactive)
same,GI50,UO-31,> 100 µM (inactive)
same,GI50,MOLT-4,> 100 µM (inactive)
same,GI50,NCI-H226,> 100 µM (inactive)
same,GI50,SW-620,> 100 µM (inactive)
same,GI50,A549,> 100 µM (inactive)
same,GI50,OVCAR-4,> 10 µM (inactive)
same,GI50,HCC 2998,> 100 µM (inactive)
same,GI50,SR,> 100 µM (inactive)
same,GI50,SNB-75,> 100 µM (inactive)
same,GI50,HCT-15,> 100 µM
same,GI50,CAKI-1,> 100 µM (inactive)
same,GI50,SF-539,> 100 µM (inactive)
same,GI50,SK-OV-3,> 100 µM (inactive)
same,GI50,DU-145,> 100 µM (inactive)
same,GI50,Hs-578T,> 100 µM (inactive)
same,GI50,SF-268,> 100 µM (inactive)
same,GI50,SK-MEL-2,> 100 µM (inactive)
same,GI50,NCI/ADR-RES,88.5 µM (inactive)
same,GI50,EKVX,92.5 µM (inactive)
same,GI50,RPMI-8226,71.1 µM (inactive)
same,GI50,HCT-116,> 100 µM (inactive)
same,GI50,CCRF-CEM,> 100 µM (inactive)
same,GI50,HL-60,> 100 µM (inactive)
same,GI50,MDA-MB-231,> 100 µM (inactive)
same,GI50,786-0,> 100 µM (inactive)
same,GI50,SK-MEL-28,> 100 µM (inactive)
same,GI50,HT-29,80 µM (inactive)
same,GI50,UACC-257,42.8 µM (inactive)
same,GI50,SF-295,> 100 µM (inactive)
same,GI50,HOP-62,> 100 µM (inactive)
same,GI50,T47D,18.6 µM (inactive)
same,GI50,TK-10,> 100 µM (inactive)
same,GI50,M14,> 100 µM (inactive)
same,GI50,MDA-N,> 100 µM (inactive)
same,GI50,OVCAR-8,> 100 µM (inactive)
same,GI50,COLO 205,> 100 µM (inactive)
same,GI50,SNB-19,> 100 µM (inactive)
same,GI50,MDA-MB-435,> 100 µM (inactive)
same,GI50,UACC-62,> 100 µM (inactive)
same,GI50,ACHN,> 100 µM (inactive)
same,GI50,IGROV-1,> 100 µM (inactive)
same,GI50,MCF7,> 100 µM (inactive)
same,GI50,K562,> 100 µM (inactive)
same,GI50,A498,> 100 µM (inactive)
same,GI50,KM12,> 100 µM (inactive)
same,GI50,Malme-3M,60.1 µM (inactive)
same,GI50,NCI-H23,80.2 µM (inactive)
same,GI50,U-251,> 100 µM (inactive)
